This note sets out measurements from US5281616A, “Porphyrin and phthalocyanine antiviral compositions” (priority 1992, dated 1994).

By EC50 is commonly meant the concentration that produces a half-maximal response.

Several values for one entry are separate records, joined by “and”; a condition that tells them apart may be missing. Equal values may be shown once. Where a name gives a salt, the structure may show the parent alone. Read-outs that look alike come from different tables or passages of the source.

Assay [1] has as its system HIV-1 (strain LAV-1). Nature of the assay: Inhibition of HIV replication in PBM cells (supernatant RT activity). The assay is classed as cell-based.
In assay [2] the target is HIV-1 reverse transcriptase (Human immunodeficiency virus type 1 group M subtype B, UniProt P04585). Nature of the assay: Inhibition of purified HIV-1 reverse transcriptase (cell free). The assay is classed as biochemical. The protocol: Methodology for Testing Antiviral Drugs for Inhibition of HIV-1 Reverse Transcriptase
Cells and viruses are cultured as described above. […] 12,431-439 (1973). Cocktail, template, compound to be tested and reverse transcriptase are mixed together on ice, then incubated for one hour at 37° C.. The DNA synthesized is acid precipitated and the radioactivity measured, as described by Eriksson, B., et al., Antimicrobial Agents and Chemotherapy 31, 600-604 ([…]).

Assay [3] deals with herpes simplex virus type 2. Nature of the assay: Plaque assay in Vero cells, HSV type 2. It counts as cell-based, HSV-2. As for the experimental part:
(§1) Methodology for Testing Antiviral Drugs for Inhibition of Replication of HSV-1 and HSV-2
(§2) Compounds are tested for inhibition of herpes simplex virus type 1 and herpes simplex virus type 2 using the method of Schinazi, et al., Antimicrobial Agents and Chemotherapy 22, 499-507 (1982). This is a plaque assay using Vero cells (African green monkey cells) infected with HSV.

Assay [4] relates to herpes simplex virus type 1. Nature of the assay: Plaque assay in Vero cells, HSV type 1. It counts as cell-based, HSV-1. The protocol: as §1, §2
The mark [5] stands for this setting: human PBM cells, RT activity in supernatant five days after infection, read-out: EC50, inhibition of HIV replication in PBM cells.
[6] abbreviates: read-out: EC50, inhibition of HIV reverse transcriptase, purified enzyme, one hour at 37° C.
The mark [7] stands for this setting: Human alphaherpesvirus 2, Light, Vero cells plaque assay, read-out: EC50 HSV type 2 Light.
Setting [8] is: Human alphaherpesvirus 1, Dark, Vero cells plaque assay, read-out: EC50 HSV type 1 Dark.
The mark [9] stands for this setting: Human alphaherpesvirus 1, Light, Vero cells plaque assay, read-out: EC50 HSV type 1 Light.
The mark [10] stands for this setting: Human alphaherpesvirus 2, Dark, Vero cells plaque assay, read-out: EC50 HSV type 2 Dark.
Setting [11] is: Human immunodeficiency virus 1, PBMC, 120 h, human PBM cells, RT activity in supernatant five days after infection, read-out: EC50, inhibition of HIV replication in PBM cells.
Where [12] appears, read: purified enzyme, one hour at 37° C., read-out: EC50, inhibition of HIV reverse transcriptase.

As for `[Co+2].c1ccc2c(c1)-c1nc-2nc2[n-]c(nc3nc(nc4[n-]c(n1)c1ccccc41)-c1ccccc1-3)c1ccccc21` [CoPHTH, Cobalt phthalocyanine], the EC50 in assay [1] (setting [5]) amounted to 100 µM.

`[Cl][Fe]1[n]2c3ccc2C(c2ccccc2)=C2C=CC(=N2)C(c2ccccc2)=c2ccc([n]21)=C(c1ccccc1)C1=NC(=C3c2ccccc2)C=C1` [FeTPPCl, Fe(III)-tetraphenylporphyrin chloride]: the EC50 in assay [1] (setting [5]) is around 100 µM.

Turning to `C[n+]1ccc(-c2c3nc(c(-c4ccccc4)c4ccc([nH]4)c(-c4ccccc4)c4nc(c(-c5cc[n+](C)cc5)c5ccc2[nH]5)C=C4)C=C3)cc1` [CP-4, 5,10-Diphenyl-15,20-di(N-methyl-4-pyridyl)-porphyrin Cl-], the “Difference in inhibition of HIV, dark versus light” value in assay [1] is “No significant differences in activity”. Also, the EC50 in assay [1] (Human immunodeficiency virus 1, PBMC, 120 h, read-out: EC50, inhibition of HIV replication in PBM cells) is 0.38 µM; in assay [1] (Human immunodeficiency virus 1, PBMC, read-out: EC50, inhibition of HIV replication in PBM cells), 0.43 µM; in assay [2] it was 26.9 µM.

With `C[n+]1ccc(-c2c3nc(c(-c4ccccc4)c4ccc([nH]4)c(-c4cc[n+](C)cc4)c4nc(c(-c5ccccc5)c5ccc2[nH]5)C=C4)C=C3)cc1` [TP-3, 5,15-Diphenyl-10,20-di(N-methyl-4-pyridyl)-porphyrin Cl-], the 50% effective concentration (EC50) in assay [2] (setting [6]) turned out to be 7.3 µM.

On to `[Cu+2].c1ccc2c(c1)-c1nc-2nc2[n-]c(nc3nc(nc4[n-]c(n1)c1ccccc41)-c1ccccc1-3)c1ccccc21` [CuPHTH, Copper phthalocyanine], for which, in assay [1] (setting [5]), the EC50 was 46.9 µM.

In the case of `Cl[Si]1(Cl)n2c3c4ccccc4c2N=C2N=C(N=c4c5ccccc5c(n41)=NC1=NC(=N3)c3ccccc31)c1ccccc12` [SiPHTHCl2, Silicon phthalocyanine dichloride], in assay [1] (Human immunodeficiency virus 1, PBMC, 120 h, read-out: EC50, inhibition of HIV replication in PBM cells, human PBM cells, RT activity in supernatant five days after infection), the EC50 is at most 1 µM.

On to `Cc1cccc(-c2c3nc(c(-c4cccc(C)c4)c4ccc([nH]4)c(-c4cccc(C)c4)c4nc(c(-c5cccc(C)c5)c5ccc2[nH]5)C=C4)C=C3)c1` [TPP(3-Me)4, Tetra-(3-methylphenyl)-porphyrin], for which the EC50 in assay [3] (setting [7]), in assay [4] (setting [8]) and in assay [4] (setting [9]) was above 10 µM each time.

On to “Fe(III)-tetra-(4-methylphenyl)-porphyrin chloride [(FeTPP)(4-Cl)4]”, for which the concentration for a half-maximal effect (EC50) in assay [1] (setting [5]) was above 100 µM.

Consider `C=CC1=C(C)c2cc3[nH]c(cc4nc(cc5[nH]c(cc1n2)c(C)c5C=C)C(C)=C4CCC(=O)OC)c(CCC(=O)OC)c3C` [PPIXDME, Protoporphyrin IX dimethyl ester], for which the EC50 in assay [3] (setting [10]) was above 10 µM; in assay [3] (setting [7]), above 10 µM; in assay [2], above 100 µM; in assay [4] (setting [8]), above 10 µM; in assay [4] (setting [9]) it was 10 µM.

Regarding “Fe(III)-mu-oxo-dimer of tetraphenyl-porphyrin [μ-oxo-TPP]”, in assay [1] (setting [5]), the EC50 was above 100 µM.

Take `O=C(O)c1ccc(-c2c3nc(c(-c4ccc(C(=O)O)cc4)c4ccc([nH]4)c(-c4ccc(C(=O)O)cc4)c4nc(c(-c5ccc(C(=O)O)cc5)c5ccc2[nH]5)C=C4)C=C3)cc1` [TPP(4-CO2 H)4, Tetra-(4-carboxyphenyl)-porphyrin]: the EC50 in assay [3] (setting [10]) is above 10 µM; in assay [3] (setting [7]) it was above 10 µM; in assay [2], 1.1 µM; in assay [4] (setting [8]), 2.5 µM; in assay [4] (setting [9]), 10 µM.

Turning to `C[n+]1cccc(-c2c3nc(c(-c4ccccc4)c4ccc([nH]4)c(-c4ccc[n+](C)c4)c4nc(c(-c5ccccc5)c5ccc2[nH]5)C=C4)C=C3)c1` [TP-4, 5,15-Diphenyl-10,20-di(N-methyl-3-pyridyl)-porphyrin Cl-], the EC50 in assay [1] (setting [11]) is below 1 µM; in assay [1] (setting [5]) it was 0.76 µM; in assay [2] (setting [6]) it was 6.9 µM.

Turning to `C[n+]1ccc(-c2c3nc(c(-c4cc[n+](C)cc4)c4ccc([nH]4)c(-c4cc[n+](C)cc4)c4nc(c(-c5cc[n+](C)cc5)c5ccc2[nH]5)C=C4)C=C3)cc1` [TMPyP, Tetra-(N-methyl-4-pyridyl)-porphyrin tosylate salt], the EC50 in assay [3] (Human alphaherpesvirus 2, Vero, read-out: EC50 HSV type 2 Dark) is above 10 µM; in assay [3] (Human alphaherpesvirus 2, Vero, read-out: EC50 HSV type 2 Light) it was above 1 µM; in assay [4] (Human alphaherpesvirus 1, Vero, read-out: EC50 HSV type 1 Dark), 0.04 µM; in assay [4] (Human alphaherpesvirus 1, Vero, read-out: EC50 HSV type 1 Light) it was 0.03 µM.

Regarding “Nickel phthalocyanine tetrasulfonic acid [NiPHTHS4]”, in assay [1] (setting [5]), the EC50 was determined as 1.06 µM.

Turning to Reactive Blue 15, the EC50 in assay [1] (setting [5]) is at most 1 µM.

`C[n+]1ccc(-c2c3nc(c(-c4cc[n+](C)cc4)c4ccc([nH]4)c(-c4cc[n+](C)cc4)c4nc(c(-c5cc[n+](C)cc5)c5ccc2[nH]5)C=C4)C=C3)cc1.Cl.[Fe+3]` [FeTMPyP, Fe(III)-tetra-(N-methyl-4-pyridyl)-porphyrin chloride]: in assay [1] (setting [5]), the EC50 turned out to be 78.1 µM.

For the molecule `Oc1ccc(-c2c3nc(c(-c4ccc(O)cc4)c4ccc([nH]4)c(-c4ccc(O)cc4)c4nc(c(-c5ccc(O)cc5)c5ccc2[nH]5)C=C4)C=C3)cc1` [TPP(4-OH)4, Tetra-(4-hydroxyphenyl)-porphyrin], the EC50 in assay [3] (setting [10]) is above 10 µM; in assay [3] (setting [7]), above 10 µM; in assay [1] (setting [11]), 0.6 µM; in assay [1] (setting [5]), 0.7 µM; in assay [4] (setting [8]) it was above 10 µM; in assay [4] (setting [9]) it was above 10 µM.

Consider `C[n+]1ccc(-c2c3nc(c(-c4cc[n+](C)cc4)c4ccc([nH]4)c(-c4ccccc4)c4nc(c(-c5ccccc5)c5ccc2[nH]5)C=C4)C=C3)cc1.[Cu+2]` [Cu-CP4, Cu(II)-5,10-diphenyl-15,20-di(N-methyl-4-pyridyl)-porphyrin], for which the EC50 in assay [1] (setting [5]) is 4.76 µM and 5.78 µM; in assay [2] (setting [12]), 57.4 µM.

“Copper-4,4',4'',4'''-tetra-aza-29H, 31H-phthalocyanine [CuPHTHN4]”: the EC50 in assay [1] (setting [5]) was found to be 100 µM.

Take “Copper phthalocyanine tetrasulfonic acid tetra-sodium salt [CuPHTHS4]”: the EC50 in assay [1] (setting [5]) was determined as 22.4 µM.

As for `Clc1ccc(-c2c3nc(c(-c4ccc(Cl)cc4)c4ccc([nH]4)c(-c4ccc(Cl)cc4)c4nc(c(-c5ccc(Cl)cc5)c5ccc2[nH]5)C=C4)C=C3)cc1` [TPP(4-Cl)4, Tetra-(4-chlorophenyl)-porphyrin], the EC50 in assay [1] (setting [11]) was around 100 µM.

On to `C=CC1=C(C)c2cc3[nH]c(cc4nc(cc5[nH]c(cc1n2)c(C)c5CCC(=O)O)C(CCC(=O)O)=C4C)c(C)c3C=C` [PPIX, Protoporphyrin, disodium salt], for which the concentration for a half-maximal effect (EC50) in assay [3] (setting [10]) is 10 µM; in assay [3] (setting [7]), 0.05 µM; in assay [2], above 100 µM; in assay [4] (setting [9]), below 0.01 µM.

In the case of “Copper phthalocyanine 3,4'4'',4'''-tetrasulfonic acid [(CuPHTHS4)(3,4,4,4)]”, the EC50 in assay [1] (setting [5]) was at most 1 µM.

Regarding `C[n+]1cccc(-c2c3nc(c(-c4ccccc4)c4ccc([nH]4)c(-c4ccccc4)c4nc(c(-c5ccc[n+](C)c5)c5ccc2[nH]5)C=C4)C=C3)c1` [CP-3, 5,10-Diphenyl-15,20-di(N-methyl-3-pyridyl)-porphyrin Cl-], the results for the EC50 in assay [1] (setting [11]) and in assay [2] were 2.28 µM and 41.6 µM, respectively.

Turning to `Cc1ccc(-c2c3nc(c(-c4ccc(C)cc4)c4ccc([nH]4)c(-c4ccc(C)cc4)c4nc(c(-c5ccc(C)cc5)c5ccc2[nH]5)C=C4)C=C3)cc1` [TPP(4-Me)4, Tetra-(4-methylphenyl)-porphyrin], the EC50 in assay [3] (setting [10]) was 3.95 µM; in assay [3] (setting [7]), above 10 µM; in assay [2], above 100 µM; in assay [4] (setting [8]), above 10 µM; in assay [4] (setting [9]), 1 µM.

As to `C[n+]1ccc(-c2c3nc(c(-c4ccccc4)c4ccc([nH]4)c(-c4ccccc4)c4nc(c(-c5cc[n+](C)cc5)c5ccc2[nH]5)C=C4)C=C3)cc1.[Ni+2]` [Ni-CP4, Ni(II)-5,10-diphenyl-15,20-di(N-methyl-4-pyridyl)-porphyrin], the EC50 in assay [1] (setting [5]) is 3.44 µM and 6.54 µM; in assay [2] (setting [12]) it was 24.8 µM.
